Data on 1 compound can be found in patent US4440757A, “Pharmaceutical composition comprising derivative of aminobenzoic acid for regulating prostaglandin” (priority 1978, dated 1984).

For assay [1], the system named is lymphocytes from the spleen of a BALB/C mouse. As to the kind of experiment: PGs metabolism of 3H-arachidonic acid taken into lymphocytes. Format: cell-based. More on the design: key: -: no change was observed; ±: change was slightly observed; +: change was clearly observed. The conditions noted are these: 500 μg/ml, 37° C., 60 min. On the procedure:
After adjusting the lymphocytes taken from the spleen of a BALB/C mouse to a concentration of 1×10^7 cells/ml, 2 μCi of ^3 H-arachidonic acid was added and the mixture was incubated at a temperature of 37° C. for 90 min. The incubated lymphocytes were washed three times with the culture medium. After again ajusting the cells to a concentration of 1×10^7 cells per ml, the culture were poured into four siliconized test tubes in an amount of 2 ml/tube. Two test tubes were used as control, and into each of the remaining two test tubes, 500 μg of the present substance, in this Example, Specimen No. 7 was added, and then the four test tubes were incubated at 37° C. for 60 min. After incubation, the test tubes were centrifugated at 0° C. for 5 min. at 1,200 rpm.
The thus obtained pellets of cells were taken into a vial containing 2 ml of the culture medium and after adding 5 ml of petroleum ether, the vial was shaken and the ether layer was removed, the remaining aqueous layer being adjusted to pH of 3.5 by aqueous 0.5 N hydrochloric acid solution.
The aqueous acidic solution was extracted three times with each 5 ml of ether, and the ether extract was dried to solid. The solid material was subjected to esterification by a solution of diazomethane. The esterified reaction mixture was subjected to thin-layer chromatography and was developed with a 90:50:20:100 (by volume) mixed solvent of ethyl acetate:iso-octane:acetic acid:water. The identification of the thus appeared spots on the chromatogram was carried out by using the following authentic specimens of PGD2, PGE2, PGF2-α and 6-keto-PGF1-α. The silicagel layer of the separated chlomatogram was scraped out and dissolved into a liquid for the liquid scintillator to be counted. From the change of the counts the change of PGS was determined.

For assay [2], the system named is spontaneously hypertensive (SHR) male rats. Description: Effect of indomethacin on the hypotensive action. Format: in vivo, rat (SHR). The conditions noted are these: 100 mg/kg p.o.; indomethacin 2.5 mg/kg before and after. The source says: It is known that PGs are produced from arachidonic acid, and cyclooxygenase participates in the conversion of arachidonic acid to PGG2, that indomethacin inactivates the above-mentioned cyclooxygenase and further that the […] of PGs is completely stopped by the administration of indomethacin.
Accordingly, the transition of blood pressure of the spontaneously hypertensive (SHR) male rats 30 to 40 weeks after birth was compared in both cases (1) where only the present substance was administered at a rate of 100 mg/kg and (2) where indomethacin was administered 2 times at a rate of 2.5 mg/kg/time before and after the administration of the present substance. The present substance, Specimen No. 7, was dissolved into distilled water or dispersed in an aqueous 2% solution of carboxymethylcellulose, and forcibly administered orally. Indomethacin was dispersed in an aqueous 2% solution of carboxymethylcellulose, and the dispersion was also forcibly administered orally, one hour before and after the administration of the present substance.

The test system of assay [3] is sarcoma 180 tumour cells, cyclic AMP. As to the kind of experiment: Level of cyclic AMP in tumour cells of sarcoma 180. It is filed as cell-based, mouse. The conditions noted are these: room temperature, 5 min. On the procedure: The present substance was added to 100 μl of the ascites-type tumour taken from the abdominal cavity of sarcoma 180-bearing mice to be a predetermined concentration, in this case, Specimen No. 7, and the mixture was incubated at room temperature for 5 min. After incubation, the culture was boiled, homogenized and centrifugated to obtain a supernatant liquid. The thus obtained supernatant liquid was subjected to the determination of cyclic AMP by the method of Gilman. […] The participation of the present substance in the metabolism of PGs is presumed also from this fact.

The next assay relates to Adenocarcinoma 755. As to the kind of experiment: PGE in tumour of adenocarcinoma 755 and its proliferation. Format: in vivo, female C57BL/6 mouse. The conditions noted are these: 1 g/kg/day oral. On the procedure:
Tumour cells of Adenocarcinoma 755 were transplanted subcutaneously to groups of female C57BL/6 mouse of after 8 weeks of birth and while feeding the mice, the present substance, Specimen No. 7, was orally administered every day from the next day of transplantation at a rate of 1 g/kg/day. The mice were sacrificed with ether on 7th or 14th day of transplantation to extirpate the tumour. The thus extirpated tumour was treated by the same procedures as in Example 11 to determine the content of PGE in the tumour.

The subject of the next assay is Sato's lung cancer. As to the kind of experiment: Translocation of dye-staff to Sato's lung cancer. The conditions noted are these: 1000 mg/kg p.o. once; control 30.0. Format: in vivo, donryu rat. How it is done: On the back of a donryu rat, a lump of Sato's lung cancer of 5 mm in size was subcutaneously transplanted.
On the axillary part of an ICR mouse, 10^6 cells of sarcoma 180 were subcutaneously transplanted. While feeding the both animals, the present substance, Specimen No. 7, was forcibly administered orally once at a rate of 1000 mg/kg on 16th day of the transplantation and an aqueous 2% solution of Lissamine Green (a dye-staff manufactured by Imperial Chem. Ind. Co.) was injected into the caudal vein of the animal at a rate of 1 ml for a rat and 0.5 ml for a mouse.
After one hour of the injection, the animal was sacrificed to extirpate the proliferated tumour. The tumour of the rat was finely cut and homogenized with an aqueous 50% solution of ethanol. After diluting the homogenate with an addition of the solution to a total volume of 50 ml, the liquid was centrifugated for 15 min at 1000 rpm to separate the supernatant liquid. The content of the dye-staff was determined on the supernatant liquid itself or after dilution by spectrophotometry using its absorption maximum of 630 nm.

The test system of assay [4] is sarcoma induced by methylcholanthrene; 6-keto PGF1α. As to the kind of experiment: Level of 6-keto PGF1α in plasma of sarcoma-bearing rats. Format: in vivo, spontaneous hypertensive rats (SHR). The conditions noted are these: 500 mg/kg/day i.p., 6 days. On the procedure: Cells of sarcoma induced by methylcholanthrene were transplanted on the back of a group of spontaneous hypertensive rats (SHR) subcutaneously at a rate of 1×10^6 cells/animal, and while feeding the rats, the present substance, Specimen No. 7, was daily administered intraperitoneally for consecutive 6 days from after 24 hours of the transplantation at a rate of 500 mg/kg/day. After 2 weeks of the ending of administration, whole blood was collected to obtain a fraction of plasma. The ether-extract of the plasma was separated by thin layer chromatography and after converting the extract into a methyloximesilyl derivative, the variation of the level 6-keto PGF1α in the extract was examined by gas-chromatography and masspectroscopy.

Turning to `O=C(O)c1ccc(NC2OC[C@@H](O)[C@H](O)[C@H]2O)cc1` (stereo partly drawn) [Specimen No. 7, Sodium p-aminobenzoate-N--D-xyloside], in assay [1], the “Change of 6-keto-PGF1-α” value is given as “±”, the “Change of PGD2” value is recorded as “+”, the “Change of PGE2” value is “+” and the “Change of PGF2-α” value was “±”. Besides, the “hypotensive effect with indomethacin (FIG. 9)” value in assay [2] is reported as “disappeared”. In assay [3], the “level of cyclic AMP in tumour cells (FIG. 10)” value was “raising the level of cyclic AMP in the tumour cells of sarcoma 180”. Further, the “Content of PGE in tumour” value in the assay with Adenocarcinoma 755 (7th day, control 0.67) is given as 2.83 ng/g. This compound showed a Weight of tumour in the assay with Adenocarcinoma 755 (7th day, control 1.34) of 1.04 g. Further, in the assay on Adenocarcinoma 755 (14th day, control 0.34), the “Content of PGE in tumour” value is on record as 1.15 ng/g. Further, the Weight of tumour with Adenocarcinoma 755 (14th day, control 4.01) is on record as 3.10 g. This compound also had an Amount of dye-staff in the assay on Sato's lung cancer of 51.0 μg/g tumour. The “level of 6-keto PGF1 in the blood of cancer-bearing rat (FIG. 14)” value in assay [4] was “almost same as in normal rat”.
